Laboratory results reported in ChEMBL document CHEMBL1138895, “Synthesis and antibacterial activity of nocathiacin I analogues” (Bioorg Med Chem Lett, 2006).
Converted amounts (≈) assume the structure as drawn.

How the values were obtained:
Enterococcus faecalis = test: Antibacterial activity against […] A20688; format: functional
Mus musculus = species on record: Mus musculus; test: Activity against Staphylococcus aureus A15090 infected ICR mouse after 8 days; format: functional; details: 192 h, read-out: PD50
Streptococcus pneumoniae = test: Antibacterial activity against penicillin resistant Streptococcus pneumoniae A28272; format: functional
Staphylococcus aureus = test: Antibacterial activity against methicillin-sensitive Staphylococcus aureus A15090; format: functional
[1] = Solubility at pH 2.9; format: physicochemical; details: buffer
[2] = Solubility at pH 3.1; format: physicochemical; details: buffer
[3] = Solubility at pH 3.0; format: physicochemical; details: buffer
[4] = Solubility at pH 3.2; format: physicochemical; details: buffer
[5] = Solubility at pH 7.4; format: physicochemical; details: buffer

Row | SMILES | MIC (Enterococcus faecalis) [µg/mL] | ED50 (Mus musculus) [mg/kg] | MIC (Streptococcus pneumoniae) [µg/mL] | MIC (Staphylococcus aureus) [µg/mL] | solubility [1] [µg/mL] | solubility [2] [µg/mL] | solubility [3] [µg/mL] | solubility [4] [µg/mL] | solubility [5] [µg/mL]
1 | CO/C(C)=C1/NC(=O)[C@H]([C@@H](C)O)NC(=O)c2csc(n2)-c2cc(O)c(-c3nc(C(=O)N[C@@H](C)C(=O)NCc4ccc(O)c(O)c4)cs3)nc2-c2csc(n2)[C@@H]2COC(=O)c3c4c5c(cccc5n3O)COC(=O)[C@@H](O[C@H]3C[C@](C)(O)[C@H](N(C)C)[C@H](C)O3)[C@@H](OC4)[C@H](NC(=O)c3csc1n3)c1nc(cs1)C(=O)N2 | 0.06 (≈ 0.0384 µM) | > 10 | 0.007 (≈ 0.00448 µM) | 0.03 (≈ 0.0192 µM) | 20 (≈ 12.8 µM) | – | – | – | –
2 | CO/C(C)=C1/NC(=O)[C@H]([C@@H](C)O)NC(=O)c2csc(n2)-c2cc(O)c(-c3nc(C(=O)N[C@@H](C)C(=O)NCCOCCO)cs3)nc2-c2csc(n2)[C@@H]2COC(=O)c3c4c5c(cccc5n3O)COC(=O)[C@@H](O[C@H]3C[C@](C)(O)[C@H](N(C)C)[C@H](C)O3)[C@@H](OC4)[C@H](NC(=O)c3csc1n3)c1nc(cs1)C(=O)N2 | 0.25 (≈ 0.164 µM) | 1 | 0.015 (≈ 0.00982 µM) | 0.03 (≈ 0.0196 µM) | – | > 2900 | – | – | –
3 | CO/C(C)=C1/NC(=O)[C@H]([C@@H](C)O)NC(=O)c2csc(n2)-c2cc(O)c(-c3nc(C(=O)N[C@@H](C)C(=O)NCCc4cc(O)cc(O)c4)cs3)nc2-c2csc(n2)[C@@H]2COC(=O)c3c4c5c(cccc5n3O)COC(=O)[C@@H](O[C@H]3C[C@](C)(O)[C@H](N(C)C)[C@H](C)O3)[C@@H](OC4)[C@H](NC(=O)c3csc1n3)c1nc(cs1)C(=O)N2 | 0.5 (≈ 0.317 µM) | > 10 | 0.06 (≈ 0.0381 µM) | 0.25 (≈ 0.159 µM) | – | – | 20 (≈ 12.7 µM) | – | –
4 | COCCOCCOCCOCCNC(=O)[C@H](C)NC(=O)c1csc(-c2nc3c(cc2O)-c2nc(cs2)C(=O)N[C@@H]([C@@H](C)O)C(=O)N/C(=C(\C)OC)c2nc(cs2)C(=O)N[C@@H]2c4nc(cs4)C(=O)N[C@@H](COC(=O)c4c5c6c(cccc6n4O)COC(=O)[C@@H](O[C@H]4C[C@](C)(O)[C@H](N(C)C)[C@H](C)O4)[C@H]2OC5)c2nc-3cs2)n1 | 0.5 (≈ 0.307 µM) | – | 0.003 (≈ 0.00184 µM) | 0.06 (≈ 0.0368 µM) | – | – | – | – | –
5 | CO/C(C)=C1/NC(=O)[C@H]([C@@H](C)O)NC(=O)c2csc(n2)-c2cc(O)c(-c3nc(C(=O)N[C@@H](C)C(=O)NCCO)cs3)nc2-c2csc(n2)[C@@H]2COC(=O)c3c4c5c(cccc5n3O)COC(=O)[C@@H](O[C@H]3C[C@](C)(O)[C@H](N(C)C)[C@H](C)O3)[C@@H](OC4)[C@H](NC(=O)c3csc1n3)c1nc(cs1)C(=O)N2 | 0.5 (≈ 0.337 µM) | 1.44 | 0.001 (≈ 0.000674 µM) | 0.03 (≈ 0.0202 µM) | – | 1300 (≈ 876 µM) | – | – | –
6 | CO/C(C)=C1/NC(=O)[C@H]([C@@H](C)O)NC(=O)c2csc(n2)-c2cc(O)c(-c3nc(C(=O)N[C@@H](C)C(=O)N4CCC(O)CC4)cs3)nc2-c2csc(n2)[C@@H]2COC(=O)c3c4c5c(cccc5n3O)COC(=O)[C@@H](O[C@H]3C[C@](C)(O)[C@H](N(C)C)[C@H](C)O3)[C@@H](OC4)[C@H](NC(=O)c3csc1n3)c1nc(cs1)C(=O)N2 | 0.06 (≈ 0.0394 µM) | 4.35 | 0.003 (≈ 0.00197 µM) | 0.007 (≈ 0.00459 µM) | – | – | – | 1100 (≈ 722 µM) | –
7 | CO/C(C)=C1/NC(=O)[C@H]([C@@H](C)O)NC(=O)c2csc(n2)-c2cc(O)c(-c3nc(C(=O)N[C@@H](C)C(=O)NCCc4ccncc4)cs3)nc2-c2csc(n2)[C@@H]2COC(=O)c3c4c5c(cccc5n3O)COC(=O)[C@@H](O[C@H]3C[C@](C)(O)[C@H](N(C)C)[C@H](C)O3)[C@@H](OC4)[C@H](NC(=O)c3csc1n3)c1nc(cs1)C(=O)N2 | 0.06 (≈ 0.0388 µM) | 3.3 | 0.015 (≈ 0.00971 µM) | 0.125 (≈ 0.0809 µM) | – | – | > 3400 | – | –
8 | CO/C(C)=C1/NC(=O)[C@H]([C@@H](C)O)NC(=O)c2csc(n2)-c2cc(O)c(-c3nc(C(=O)N[C@@H](C)C(=O)NCCOCCOCCOCCOCCOCCOC4O[C@H](CO)[C@@H](O)[C@H](O)[C@H]4O)cs3)nc2-c2csc(n2)[C@@H]2COC(=O)c3c4c5c(cccc5n3O)COC(=O)[C@@H](O[C@H]3C[C@](C)(O)[C@H](N(C)C)[C@H](C)O3)[C@@H](OC4)[C@H](NC(=O)c3csc1n3)c1nc(cs1)C(=O)N2 (some centres undefined) | 8 (≈ 4.29 µM) | – | 1 (≈ 0.536 µM) | 4 (≈ 2.14 µM) | > 3700 | – | – | – | –
9 | CO/C(C)=C1/NC(=O)[C@H]([C@@H](C)O)NC(=O)c2csc(n2)-c2cc(O)c(-c3nc(C(=O)N[C@@H](C)C(=O)N(C)C[C@@H](O)[C@@H](O)[C@@H](O)[C@@H](O)CO)cs3)nc2-c2csc(n2)[C@@H]2COC(=O)c3c4c5c(cccc5n3O)COC(=O)[C@@H](O[C@H]3C[C@](C)(O)[C@H](N(C)C)[C@H](C)O3)[C@@H](OC4)[C@H](NC(=O)c3csc1n3)c1nc(cs1)C(=O)N2 | 0.5 (≈ 0.309 µM) | – | 0.015 (≈ 0.00927 µM) | 0.125 (≈ 0.0773 µM) | – | – | – | > 2400 | –
10 | CO/C(C)=C1/NC(=O)[C@H]([C@@H](C)O)NC(=O)c2csc(n2)-c2cc(O)c(-c3nc(C(=O)N[C@@H](C)C(=O)N4CCC[C@H]4CO)cs3)nc2-c2csc(n2)[C@@H]2COC(=O)c3c4c5c(cccc5n3O)COC(=O)[C@@H](O[C@H]3C[C@](C)(O)[C@H](N(C)C)[C@H](C)O3)[C@@H](OC4)[C@H](NC(=O)c3csc1n3)c1nc(cs1)C(=O)N2 | 0.25 (≈ 0.164 µM) | 2.18 | 0.015 (≈ 0.00984 µM) | 0.03 (≈ 0.0197 µM) | – | 2200 (≈ 1440 µM) | – | – | –
11 | CO/C(C)=C1/NC(=O)[C@H]([C@@H](C)O)NC(=O)c2csc(n2)-c2cc(O)c(-c3nc(C(=O)N[C@@H](C)C(=O)NC[C@H](O)CO)cs3)nc2-c2csc(n2)[C@@H]2COC(=O)c3c4c5c(cccc5n3O)COC(=O)[C@@H](O[C@H]3C[C@](C)(O)[C@H](N(C)C)[C@H](C)O3)[C@@H](OC4)[C@H](NC(=O)c3csc1n3)c1nc(cs1)C(=O)N2 | 0.25 (≈ 0.165 µM) | 5 | 0.03 (≈ 0.0198 µM) | 0.25 (≈ 0.165 µM) | – | > 2200 | – | – | –
12 | CO/C(C)=C1/NC(=O)[C@H]([C@@H](C)O)NC(=O)c2csc(n2)-c2cc(O)c(-c3nc(C(=O)N[C@@H](C)C(=O)NCc4ccc(O)cc4)cs3)nc2-c2csc(n2)[C@@H]2COC(=O)c3c4c5c(cccc5n3O)COC(=O)[C@@H](O[C@H]3C[C@](C)(O)[C@H](N(C)C)[C@H](C)O3)[C@@H](OC4)[C@H](NC(=O)c3csc1n3)c1nc(cs1)C(=O)N2 | 0.03 (≈ 0.0194 µM) | 4.35 | 0.007 (≈ 0.00453 µM) | 0.007 (≈ 0.00453 µM) | – | 480 (≈ 311 µM) | – | – | –
13 | CO/C(C)=C1/NC(=O)[C@H]([C@@H](C)O)NC(=O)c2csc(n2)-c2cc(O)c(-c3nc(C(=O)N[C@@H](C)C(=O)NCCOP(=O)([O-])[O-])cs3)nc2-c2csc(n2)[C@@H]2COC(=O)c3c4c5c(cccc5n3O)COC(=O)[C@@H](O[C@H]3C[C@](C)(O)[C@H](N(C)C)[C@H](C)O3)[C@@H](OC4)[C@H](NC(=O)c3csc1n3)c1nc(cs1)C(=O)N2.[Na+].[Na+] | 16 | 1.65 | 0.5 | 8 | – | – | – | – | > 4800
14 | CO/C(C)=C1/NC(=O)[C@H]([C@@H](C)O)NC(=O)c2csc(n2)-c2cc(O)c(-c3nc(C(=O)N[C@@H](C)C(=O)NCc4ccc(CP(=O)(O)O)cc4)cs3)nc2-c2csc(n2)[C@@H]2COC(=O)c3c4c5c(cccc5n3O)COC(=O)[C@@H](O[C@H]3C[C@](C)(O)[C@H](N(C)C)[C@H](C)O3)[C@@H](OC4)[C@H](NC(=O)c3csc1n3)c1nc(cs1)C(=O)N2 | 2 (≈ 1.23 µM) | > 10 | 0.25 (≈ 0.154 µM) | 1 (≈ 0.616 µM) | – | – | – | – | > 2600
15 | CO/C(C)=C1/NC(=O)[C@H]([C@@H](C)O)NC(=O)c2csc(n2)-c2cc(O)c(-c3nc(C(=O)N[C@@H](C)C(=O)NCCc4ccc(O)c(O)c4)cs3)nc2-c2csc(n2)[C@@H]2COC(=O)c3c4c5c(cccc5n3O)COC(=O)[C@@H](O[C@H]3C[C@](C)(O)[C@H](N(C)C)[C@H](C)O3)[C@@H](OC4)[C@H](NC(=O)c3csc1n3)c1nc(cs1)C(=O)N2 | 0.5 (≈ 0.317 µM) | > 10 | 0.125 (≈ 0.0793 µM) | 0.25 (≈ 0.159 µM) | – | – | 7 (≈ 4.44 µM) | – | –
16 | CO/C(C)=C1/NC(=O)[C@H]([C@@H](C)O)NC(=O)c2csc(n2)-c2cc(O)c(-c3nc(C(=O)N[C@@H](C)C(N)=O)cs3)nc2-c2csc(n2)[C@@H]2COC(=O)c3c4c5c(cccc5n3O)COC(=O)[C@@H](O[C@H]3C[C@](C)(O)[C@H](N(C)C)[C@H](C)O3)[C@@H](OC4)[C@H](NC(=O)c3csc1n3)c1nc(cs1)C(=O)N2 | 2 (≈ 1.39 µM) | 1.65 | 0.06 (≈ 0.0417 µM) | 0.25 (≈ 0.174 µM) | – | 700 (≈ 486 µM) | – | – | –
17 | CO/C(C)=C1/NC(=O)[C@H]([C@@H](C)O)NC(=O)c2csc(n2)-c2cc(O)c(-c3nc(C(=O)N[C@@H](C)C(=O)NC(CC(=O)O)C(=O)O)cs3)nc2-c2csc(n2)[C@@H]2COC(=O)c3c4c5c(cccc5n3O)COC(=O)[C@@H](O[C@H]3C[C@](C)(O)[C@H](N(C)C)[C@H](C)O3)[C@@H](OC4)[C@H](NC(=O)c3csc1n3)c1nc(cs1)C(=O)N2 (some centres undefined) | 16 (≈ 10.3 µM) | – | 0.25 (≈ 0.161 µM) | 16 (≈ 10.3 µM) | – | – | – | – | –
18 | CO/C(C)=C1/NC(=O)[C@H]([C@@H](C)O)NC(=O)c2csc(n2)-c2cc(O)c(-c3nc(C(=O)N[C@@H](C)C(=O)N[C@@H]4[C@@H](O)[C@H](O)[C@@H](CO)O[C@H]4O)cs3)nc2-c2csc(n2)[C@@H]2COC(=O)c3c4c5c(cccc5n3O)COC(=O)[C@@H](O[C@H]3C[C@](C)(O)[C@H](N(C)C)[C@H](C)O3)[C@@H](OC4)[C@H](NC(=O)c3csc1n3)c1nc(cs1)C(=O)N2 | 0.5 (≈ 0.312 µM) | > 10 | 0.06 (≈ 0.0375 µM) | 1 (≈ 0.624 µM) | – | > 2200 | – | – | –
19 | CO/C(C)=C1/NC(=O)[C@H]([C@@H](C)O)NC(=O)c2csc(n2)-c2cc(O)c(-c3nc(C(=O)N[C@@H](C)C(=O)NCCc4ccc(O)cc4)cs3)nc2-c2csc(n2)[C@@H]2COC(=O)c3c4c5c(cccc5n3O)COC(=O)[C@@H](O[C@H]3C[C@](C)(O)[C@H](N(C)C)[C@H](C)O3)[C@@H](OC4)[C@H](NC(=O)c3csc1n3)c1nc(cs1)C(=O)N2 | 0.007 (≈ 0.00449 µM) | > 10 | 0.0005 (≈ 0.000321 µM) | 0.003 (≈ 0.00192 µM) | – | – | – | 120 (≈ 76.9 µM) | –
